One assay has as its target T1, p38-alpha (Homo sapiens, UniProt Q16539).
T1 construct: purchased DiscoveRx (KINOMEscan service)
Nature of the assay: KINOMEscan active-site competitive binding assay. As to conditions: slash = two separate measurements.

Another assay concerns the target T2, TIE-1 (Homo sapiens, UniProt P35590).
T2 construct: purchased DiscoveRx
Kind of assay: KINOMEscan active-site competitive binding assay. As to conditions: slash = two separate measurements.

Assay [1] relates to lung tumor cell lines expressing wt or mutant DDR2. Kind of assay: Preliminary in vitro proliferation, lung tumor cell lines expressing wt or mutant DDR2. Type of assay: cell-based. As to conditions: unpubl. data.
In a further assay the target is T3, YSK4 (Homo sapiens, UniProt Q56UN5).
T3 construct: purchased DiscoveRx
T3 sequence (Q56UN5 1-1328): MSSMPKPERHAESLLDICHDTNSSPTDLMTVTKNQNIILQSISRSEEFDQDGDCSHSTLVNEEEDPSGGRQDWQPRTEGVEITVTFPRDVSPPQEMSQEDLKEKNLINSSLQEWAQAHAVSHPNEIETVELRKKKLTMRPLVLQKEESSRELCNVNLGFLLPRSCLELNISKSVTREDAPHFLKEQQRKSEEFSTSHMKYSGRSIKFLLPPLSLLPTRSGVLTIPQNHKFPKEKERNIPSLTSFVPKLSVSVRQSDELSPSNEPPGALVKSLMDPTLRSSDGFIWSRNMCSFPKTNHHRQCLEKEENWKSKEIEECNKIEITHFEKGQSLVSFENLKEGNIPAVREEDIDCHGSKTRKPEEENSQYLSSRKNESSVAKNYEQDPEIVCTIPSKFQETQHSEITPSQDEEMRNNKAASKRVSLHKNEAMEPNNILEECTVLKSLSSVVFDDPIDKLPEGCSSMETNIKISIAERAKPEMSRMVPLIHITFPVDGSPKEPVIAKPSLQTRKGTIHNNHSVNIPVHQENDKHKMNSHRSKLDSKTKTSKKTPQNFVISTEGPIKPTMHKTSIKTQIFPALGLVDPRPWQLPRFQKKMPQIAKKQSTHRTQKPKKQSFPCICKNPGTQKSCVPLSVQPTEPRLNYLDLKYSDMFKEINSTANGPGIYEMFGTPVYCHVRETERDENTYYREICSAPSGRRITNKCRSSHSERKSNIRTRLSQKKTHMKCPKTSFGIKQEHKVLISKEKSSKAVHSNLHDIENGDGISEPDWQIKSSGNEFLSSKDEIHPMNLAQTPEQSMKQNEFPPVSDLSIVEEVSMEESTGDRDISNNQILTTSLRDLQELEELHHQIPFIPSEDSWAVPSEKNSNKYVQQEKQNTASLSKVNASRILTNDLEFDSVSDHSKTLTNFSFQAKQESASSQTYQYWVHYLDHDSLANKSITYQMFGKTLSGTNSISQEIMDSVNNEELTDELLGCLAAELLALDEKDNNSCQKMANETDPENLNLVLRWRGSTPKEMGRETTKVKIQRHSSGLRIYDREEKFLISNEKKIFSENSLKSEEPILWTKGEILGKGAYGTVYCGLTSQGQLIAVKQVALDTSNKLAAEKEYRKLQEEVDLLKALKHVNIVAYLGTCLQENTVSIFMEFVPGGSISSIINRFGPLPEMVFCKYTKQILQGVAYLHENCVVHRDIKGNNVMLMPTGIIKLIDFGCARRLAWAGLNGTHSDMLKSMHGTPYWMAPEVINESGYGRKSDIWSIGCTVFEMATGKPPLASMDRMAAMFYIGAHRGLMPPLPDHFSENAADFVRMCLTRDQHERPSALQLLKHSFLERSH
Nature of the assay: KINOMEscan active-site competitive binding assay. Conditions: slash = two separate measurements.

The target of the next assay is T4, EPHA6 (Homo sapiens, UniProt Q9UF33).
T4 construct: purchased DiscoveRx (KINOMEscan service)
T4 sequence (Q9UF33 23-1036): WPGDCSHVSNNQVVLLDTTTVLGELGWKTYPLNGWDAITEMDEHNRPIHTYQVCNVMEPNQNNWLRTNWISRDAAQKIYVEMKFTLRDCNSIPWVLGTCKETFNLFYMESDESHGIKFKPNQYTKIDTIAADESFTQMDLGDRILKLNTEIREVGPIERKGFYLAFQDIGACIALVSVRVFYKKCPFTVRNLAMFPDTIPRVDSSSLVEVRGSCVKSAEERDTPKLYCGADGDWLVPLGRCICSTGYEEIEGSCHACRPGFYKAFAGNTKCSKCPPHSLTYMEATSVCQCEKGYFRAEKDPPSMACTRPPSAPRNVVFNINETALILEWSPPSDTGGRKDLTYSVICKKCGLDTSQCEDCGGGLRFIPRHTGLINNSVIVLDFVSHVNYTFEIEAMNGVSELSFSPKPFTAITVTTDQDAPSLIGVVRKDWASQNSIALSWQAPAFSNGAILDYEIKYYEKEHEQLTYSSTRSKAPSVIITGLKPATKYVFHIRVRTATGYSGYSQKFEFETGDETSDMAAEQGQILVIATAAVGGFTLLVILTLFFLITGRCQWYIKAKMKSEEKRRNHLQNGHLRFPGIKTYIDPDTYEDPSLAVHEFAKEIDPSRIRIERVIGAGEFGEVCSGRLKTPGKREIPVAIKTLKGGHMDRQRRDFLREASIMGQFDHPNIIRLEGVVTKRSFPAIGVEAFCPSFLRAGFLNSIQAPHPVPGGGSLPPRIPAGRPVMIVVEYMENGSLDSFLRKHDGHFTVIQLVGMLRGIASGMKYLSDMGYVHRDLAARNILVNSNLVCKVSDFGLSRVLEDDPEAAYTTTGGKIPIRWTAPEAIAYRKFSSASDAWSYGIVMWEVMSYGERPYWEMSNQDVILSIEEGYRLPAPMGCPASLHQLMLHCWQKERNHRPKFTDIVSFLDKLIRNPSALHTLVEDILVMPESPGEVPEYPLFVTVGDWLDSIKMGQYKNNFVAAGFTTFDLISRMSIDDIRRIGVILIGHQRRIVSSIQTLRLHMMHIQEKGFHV
Nature of the assay: KINOMEscan active-site competitive binding assay. As to conditions: slash = two separate measurements.

In the next assay the target is T5, JNK2 (Homo sapiens, UniProt P45984).
T5 construct: purchased DiscoveRx (KINOMEscan service)
Kind of assay: KINOMEscan active-site competitive binding assay. As to conditions: slash = duplicate values.

The target in the next assay is T6, p38-beta (Homo sapiens, UniProt Q15759).
T6 construct: purchased DiscoveRx (KINOMEscan service)
Kind of assay: KINOMEscan active-site competitive binding assay. As to conditions: slash = two separate measurements.

Consider three compounds from paper PMC5119973 (Cancer Medicine, 2016).

For orientation: pKd means −log10 of the Kd, conventionally taken in molar units. Higher therefore signals a low Kd.

pKd: −log10 of the molar value. Where “and” joins values, the source holds several entries; their conditions need not be identical. Identical values can stand only once.

T6 sequence (Q15759 whole entry): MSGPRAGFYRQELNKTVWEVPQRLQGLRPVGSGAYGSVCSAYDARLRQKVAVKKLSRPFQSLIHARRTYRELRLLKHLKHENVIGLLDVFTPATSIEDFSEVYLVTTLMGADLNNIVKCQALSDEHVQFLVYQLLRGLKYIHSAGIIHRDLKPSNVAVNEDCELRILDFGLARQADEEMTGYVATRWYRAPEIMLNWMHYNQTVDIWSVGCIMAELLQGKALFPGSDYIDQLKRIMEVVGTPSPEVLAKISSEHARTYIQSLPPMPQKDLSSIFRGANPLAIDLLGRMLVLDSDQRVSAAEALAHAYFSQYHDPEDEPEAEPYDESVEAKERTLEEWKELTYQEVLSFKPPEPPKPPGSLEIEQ
T2 sequence (P35590 22-1138): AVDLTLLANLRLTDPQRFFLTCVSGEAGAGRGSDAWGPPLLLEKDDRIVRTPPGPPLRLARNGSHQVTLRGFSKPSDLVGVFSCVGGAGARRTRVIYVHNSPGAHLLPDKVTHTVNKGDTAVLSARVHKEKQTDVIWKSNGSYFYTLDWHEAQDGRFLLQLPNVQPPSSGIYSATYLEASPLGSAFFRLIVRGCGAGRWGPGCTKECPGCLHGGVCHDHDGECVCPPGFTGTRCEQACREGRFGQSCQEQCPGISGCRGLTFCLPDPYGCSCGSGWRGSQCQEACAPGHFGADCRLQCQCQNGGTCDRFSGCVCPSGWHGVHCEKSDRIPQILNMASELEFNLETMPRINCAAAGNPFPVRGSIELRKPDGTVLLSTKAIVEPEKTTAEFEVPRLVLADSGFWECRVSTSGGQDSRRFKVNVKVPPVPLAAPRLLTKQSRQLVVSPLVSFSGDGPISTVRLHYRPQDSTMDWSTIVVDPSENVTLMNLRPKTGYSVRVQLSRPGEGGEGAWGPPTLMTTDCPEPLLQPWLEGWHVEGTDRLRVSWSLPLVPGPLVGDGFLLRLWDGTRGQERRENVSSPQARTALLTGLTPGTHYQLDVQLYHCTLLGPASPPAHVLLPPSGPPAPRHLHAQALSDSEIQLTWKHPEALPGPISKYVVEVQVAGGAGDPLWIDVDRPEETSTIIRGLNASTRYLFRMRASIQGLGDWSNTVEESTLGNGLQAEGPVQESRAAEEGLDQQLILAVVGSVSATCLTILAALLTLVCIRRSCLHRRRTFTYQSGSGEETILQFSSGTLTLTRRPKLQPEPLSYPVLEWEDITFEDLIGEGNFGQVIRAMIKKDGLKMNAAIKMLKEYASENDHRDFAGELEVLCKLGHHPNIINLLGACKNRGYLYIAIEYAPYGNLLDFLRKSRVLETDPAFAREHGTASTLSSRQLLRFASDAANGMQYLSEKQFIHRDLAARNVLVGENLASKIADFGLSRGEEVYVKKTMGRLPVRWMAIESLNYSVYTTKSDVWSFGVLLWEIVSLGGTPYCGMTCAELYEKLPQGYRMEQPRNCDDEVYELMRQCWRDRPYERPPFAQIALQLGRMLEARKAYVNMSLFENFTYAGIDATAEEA
T1 sequence (Q16539 whole entry): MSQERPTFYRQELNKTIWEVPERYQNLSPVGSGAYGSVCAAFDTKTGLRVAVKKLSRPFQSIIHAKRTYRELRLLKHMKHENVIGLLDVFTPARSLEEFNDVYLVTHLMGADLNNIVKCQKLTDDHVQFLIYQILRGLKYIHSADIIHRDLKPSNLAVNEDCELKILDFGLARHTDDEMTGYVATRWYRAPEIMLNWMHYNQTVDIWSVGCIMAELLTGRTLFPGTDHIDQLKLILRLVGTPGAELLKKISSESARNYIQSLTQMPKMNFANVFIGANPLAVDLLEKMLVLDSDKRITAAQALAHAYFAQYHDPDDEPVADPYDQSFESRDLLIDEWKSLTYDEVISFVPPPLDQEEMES
T5 sequence (P45984 whole entry): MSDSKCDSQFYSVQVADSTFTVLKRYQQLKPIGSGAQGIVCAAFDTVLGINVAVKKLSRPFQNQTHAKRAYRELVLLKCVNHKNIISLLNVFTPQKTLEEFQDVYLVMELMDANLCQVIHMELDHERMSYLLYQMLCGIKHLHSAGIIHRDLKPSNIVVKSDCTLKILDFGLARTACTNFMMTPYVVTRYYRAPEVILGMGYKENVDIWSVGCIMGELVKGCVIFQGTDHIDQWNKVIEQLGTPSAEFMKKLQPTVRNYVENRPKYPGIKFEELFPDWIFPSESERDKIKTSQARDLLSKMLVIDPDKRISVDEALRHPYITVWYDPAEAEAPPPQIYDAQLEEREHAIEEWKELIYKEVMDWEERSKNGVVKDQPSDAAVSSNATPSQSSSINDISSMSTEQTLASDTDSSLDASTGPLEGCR

As for `CNC(=O)c1cc(Oc2ccc(NC(=O)Nc3ccc(Cl)c(C(F)(F)F)c3)c(F)c2)cc[n+]1[O-]` [M‐2], the pKd on p38-alpha was 7.77; on TIE-1 it was 7.32; on YSK4, 7.26; on EPHA6 it was 6.68; at JNK2 it was 7.17 and 7.36; on p38-beta it was 8.06. Besides, the Inhibition of proliferation result in assay [1] is recorded as “only moderate inhibition”.

For the compound `CNC(=O)c1cc(Oc2ccc(NC(=O)Nc3ccc(Cl)c(C(F)(F)F)c3)c(F)c2)ccn1` [Regorafenib, reference compound], the pKd is 7.24 and 7.32 at p38-alpha; 7.52 and 7.57 on TIE-1; 7.42 and 7.03 at YSK4; 7.32 and 7.64 on EPHA6; 5.85 and 5.72 at JNK2; 7.36 and 7.55 on p38-beta. Moreover, the Inhibition of proliferation result in assay [1] is listed as “only moderate inhibition”.

With `NC(=O)c1cc(Oc2ccc(NC(=O)Nc3ccc(Cl)c(C(F)(F)F)c3)c(F)c2)cc[n+]1[O-]` [M‐5], the pKd was 7.32 at p38-alpha; 7.14 on TIE-1; 7.15 at YSK4; 6.19 on EPHA6; 6.17 on JNK2; 7.60 at p38-beta. Moreover, the Inhibition of proliferation entry in assay [1] was “only moderate inhibition”.
